From ChEMBL document CHEMBL5584258, “Synthesis, biosimulation and pharmacological evaluation of benzimidazole derivatives with antihypertensive multitarget effect” (Bioorg Med Chem Lett, 2024)
The source made the active and inactive calls. The calls are words filed in the database; no cut-off is given here.

Legend:
[1] = species: Rattus norvegicus; test: Antagonist activity at AT1 Ang II receptor in noradrenaline sensitized rat aorta assessed as inhibition of angiotensin II induced contraction at 10 uM preincubated for 15 mins followed by angiotensin II addition; format: tissue-based; settings: filed as antagonist
[2] = species: Rattus norvegicus; test: Antagonist activity at AT1 Ang II receptor in rat kidney assessed as reduction in angiotensin II induced renal perfusion pressure at 1 uM measured after […]; format: tissue-based; settings: time […]
[3] = tested on: Aorta; test: Vasorelaxant activity in rat aorta assessed as relaxation of noradrenaline-induced vascular contraction at 10 uM relative to control; format: functional; parameters: scale not given: the % may be the effect or the level left
[4] = tested on: Aorta; test: Vasorelaxant activity in rat aorta assessed as relaxation of noradrenaline-induced vascular contraction at 10 uM incubated in presence of endothelium; format: functional, tissue-based
[5] = tested on: Aorta; test: Vasorelaxant activity in rat aorta assessed as relaxation of noradrenaline-induced vascular contraction at 10 uM incubated in absence of endothelium; format: functional, tissue-based
[6] = molecular target: Voltage-gated L-type calcium channel (Rattus norvegicus, UniProt P22002+Q02485+P27732); test: Inhibition of L-type calcium channel in rat aorta assessed as vasorelaxation of thoracic aorta in presence of endothelium; format: tissue-based
[7] = tested on: Rattus norvegicus; test: Antihypertensive activity in spontaneously hypertensive rat assessed as reduction in systolic blood pressure at 20 mg/kg, ip measured for 6 hrs by tail-cuff method; format: functional, organism-based
[8] = tested on: Rattus norvegicus; test: Antihypertensive activity in spontaneously hypertensive rat assessed as reduction in systolic blood pressure at 5 mg/kg, ip measured for 6 hrs by tail-cuff method; format: functional, organism-based

| SMILES | Activity [1] | Activity [2] | further results |
| --- | --- | --- | --- |
| Cc1ccc2[nH]c(SCc3ccc(C(=O)Nc4nnn[nH]4)cc3)nc2c1 | Active | inactive |  |
| O=C(O)c1ccc2[nH]c(SCc3ccc(C(=O)Nc4nnn[nH]4)cc3)nc2c1 | Active | inactive |  |
| O=C(O)c1ccc2[nH]c(SCc3ccc(-c4ccccc4-c4nnn[nH]4)cc3)nc2c1 | Active |  | Activity [3]: 88.7%; Activity [4]: Active; Activity [5]: Active; IC50 [6]: 570 nM; Activity ([2]; filed as antagonist): Active; Activity [7]: Active |
| O=C(O)c1cccc2[nH]c(SCc3ccc(-c4ccccc4-c4nnn[nH]4)cc3)nc12 | Active | inactive | Activity [3]: 57.3%; Activity [4]: Active |
| CCCc1nc2c(C)cc(-c3nc4ccccc4n3C)cc2n1Cc1ccc(-c2ccccc2C(=O)O)cc1 | Active |  | Activity ([2]; filed as antagonist): Active; Activity [8]: Active |
| O=C(Nc1nnn[nH]1)c1ccc(CSc2nc3c(C(=O)O)cccc3[nH]2)cc1 | Active | inactive |  |
| O=C(Nc1nnn[nH]1)c1ccc(CSc2nc3cc([N+](=O)[O-])ccc3[nH]2)cc1 | Active | inactive |  |
| O=[N+]([O-])c1ccc2[nH]c(SCc3ccc(-c4ccccc4-c4nnn[nH]4)cc3)nc2c1 | Active | inactive |  |
